Measurements as given in ChEMBL document CHEMBL1128853, “Zn(II)-chelating inhibitors of carboxypeptidase A” (Bioorg Med Chem Lett, 1995).

Assay: Binding affinity against Carboxypeptidase A

Compound	Ki [µM]
O=C(O)C(CSCCSCc1ccccc1)Cc1ccccc1 (stereo unspecified)	660
O=C(O)C(Cc1ccccc1)SCCSc1ccccc1 (stereo unspecified)	670
O=C(NC(Cc1ccccc1)C(=O)O)c1ccccn1 (stereo unspecified)	370
NC(=O)C(CSCCS)Cc1ccccc1 (stereo unspecified)	29
O=C(O)C(Cc1ccccc1)(Cc1ccccc1)SCCSc1ccccc1	450
O=C(O)C(CCCCS)Cc1ccccc1 (stereo unspecified)	45
O=C(O)C(CCc1ccccc1S)Cc1ccccc1 (stereo unspecified)	5.8
O=C(CC(Cc1ccccc1)C(=O)O)c1ccccn1 (stereo unspecified)	82
O=C(O)C(C/C(=N\O)c1ccccn1)Cc1ccccc1 (stereo unspecified)	> 300
O=C(O)CC(CSCCS)Cc1ccccc1 (stereo unspecified)	19
CCCSCC(Cc1ccccc1)C(=O)O (stereo unspecified)	340
CCCCCC(Cc1ccccc1)C(=O)O (stereo unspecified)	620
O=C(O)c1cccc(C(=O)NC(Cc2ccccc2)C(=O)O)n1 (stereo unspecified)	790
NC(=O)C(CCSCCS)Cc1ccccc1 (stereo unspecified)	92
O=C(CC(Cc1ccccc1)C(=O)O)c1ccccc1S (stereo unspecified)	4.4
O=C(CC/C(=N\O)c1ccccn1)NC(Cc1ccccc1)C(=O)O (stereo unspecified)	> 300
O=C(O)C(Cc1ccccc1)SCCS (stereo unspecified)	21
O=C(NC(Cc1ccccc1)C(=O)O)c1cnccn1 (stereo unspecified)	180
O=C(O)C(Cc1ccccc1)NC/C(=N\O)c1ccccn1 (stereo unspecified)	580
O=C(Nc1ccccc1)C(CSCCS)Cc1ccccc1 (stereo unspecified)	34
O=C(O)C(CSCCS)Cc1ccccc1 (stereo unspecified)	4.2
